# Where a name gives a salt, the structure may show the parent alone.
# Biological target: T1, haematopoietic prostaglandin D synthase (H-PGDS) (Homo sapiens, UniProt O60760)
# T1 construct: Full length human H-PGDS cDNA (Invitrogen Ultimate ORF 10H13026) was amplified by PCR; 6-His (N); TEV protease cleavage site (N); made in house; host or cells: E. coli BL21 (DE3*), vector pET22b+
# Test: H-PGDS RapidFire high throughput mass spectrometry assay (conversion of PGH2 to PGD2)
# Type: biochemical
# Conditions: 10 nM H-PGDS, PGH2 formed in situ by COX-2 from arachidonic acid; read-out: Potency Range (mean pIC50) (converted)
# Method in brief: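 RapidFire SPE–MS read-out calculated percent conversion from relative PGD2 and PGF2α (substrate surrogate) levels. Recombinant full-length human H-PGDS (His-tag, E. coli) turned over PGH2, produced in situ at ˜10 μM by human COX-2 (FLAG-tag, Sf9 cells) acting on arachidonic acid.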
# T1 sequence (O60760 whole entry): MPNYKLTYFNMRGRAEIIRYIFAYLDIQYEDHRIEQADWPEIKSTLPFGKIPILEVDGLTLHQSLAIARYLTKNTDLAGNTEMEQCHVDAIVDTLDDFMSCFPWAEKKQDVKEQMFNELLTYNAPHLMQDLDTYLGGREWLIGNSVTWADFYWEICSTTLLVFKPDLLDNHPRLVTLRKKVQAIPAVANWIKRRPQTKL
row,SMILES,IC50 [nM]
1,"COc1ccc(F)cc1O[C@H]1C[C@H](C(=O)Nc2cccc(C#N)n2)C1 [Example 159, (trans)-N-(6-Cyanopyridin-2-yl)-3-(5-fluoro-2-methoxyphenoxy)cyclobutanecarboxamide]",10 to 79.4
2,"O=C(Nc1nccs1)[C@H]1C[C@H](Nc2cccc3cccnc23)C1 [Example 221, (trans)-3-(Quinolin-8-ylamino)-N-(thiazol-2-yl)cyclobutanecarboxamide]",100 to 1000
3,"O=C(NC1CN(c2ccc(F)cn2)C1)N1CC(Oc2cc(F)cc3scnc23)C1 [Example 119, 3-((6-Fluorobenzo[d]thiazol-4-yl)oxy)-N-(1-(5-fluoropyridin-2-yl)azetidin-3-yl)azetidine-1-carboxamide]",10 to 79.4
4,"O=C(Nc1nccs1)[C@H]1C[C@H](Oc2cccc3[nH]cnc23)C1 [Example 297, (trans)-3-((1H-Benzo[d]imidazol-4-yl)oxy)-N-(thiazol-2-yl)cyclobutanecarboxamide, di-trifluoroacetic acid salt]",100 to 1000
5,"O=C(N[C@H]1CC[C@H](N2CC(F)(F)C2)CC1)[C@H]1C[C@H](Oc2cc(F)ccc2OC(F)F)C1 [Example 19, (trans)-N-((trans)-4-(3,3-Difluoroazetidin-1-yl)cyclohexyl)-3-(2-(difluoromethoxy)-5-fluorophenoxy)cyclobutanecarboxamide]",10 to 79.4
6,"CC(N[C@H]1CC[C@H](NC(=O)[C@H]2C[C@H](Oc3cccc4scnc34)C2)CC1)C(F)F (mixture of isomers) [Example 46, Racemic (trans)-3-(Benzo[d]thiazol-4-yloxy)-N-((trans)-4-((1,1-difluoropropan-2-yl)amino)cyclohexyl)cyclobutanecarboxamide]",10 to 79.4
7,"CC(C)(O)CO[C@H]1CC[C@H](NC(=O)[C@H]2C[C@H](Oc3cccc4cccnc34)C2)CC1 [Example 220, (trans)-N-((trans)-4-(2-Hydroxy-2-methylpropoxy)cyclohexyl)-3-(quinolin-8-yloxy)cyclobutanecarboxamide]",100 to 1000
8,"NC(=O)c1cnc(NC(=O)[C@H]2C[C@H](Oc3cccc4cccnc34)C2)s1 [Example 191, 2-((trans)-3-(Quinolin-8-yloxy)cyclobutanecarboxamido)thiazole-5-carboxamide]",10 to 79.4
9,"CC(C)(O)c1cnc(N2CC(NC(=O)[C@H]3C[C@H](Oc4cccc5scnc45)C3)C2)o1 [Example 49, (trans)-3-(Benzo[d]thiazol-4-yloxy)-N-(1-(5-(2-hydroxypropan-2-yl)oxazol-2-yl)azetidin-3-yl)cyclobutanecarboxamide]",10 to 79.4
10,"O=C(Nc1cc(C2CC2)n[nH]1)[C@H]1C[C@H](Oc2cccc3scnc23)C1 [Example 302, (trans)-3-(Benzo[d]thiazol-4-yloxy)-N-(3-cyclopropyl-1H-pyrazol-5-yl)cyclobutanecarboxamide]",10 to 79.4
11,"O=C(Nc1nc(C2CC2)cs1)[C@H]1C[C@H](Oc2cccc3scnc23)C1 [Example 138, (trans)-3-(Benzo[d]thiazol-4-yloxy)-N-(4-cyclopropylthiazol-2-yl)cyclobutanecarboxamide]",< 10
12,"CC(C)(C)OC(=O)N[C@H]1C[C@H](NC(=O)[C@H]2C[C@H](Oc3cccc4scnc34)C2)C1 [Example 66, tert-butyl ((trans)-3-((trans)-3-(benzo[d]thiazol-4-yloxy)cyclobutanecarboxamido)cyclobutyl)carbamate]",100 to 1000
13,"O=C(NC1CN(c2ncc(F)cn2)C1)N1CC(Oc2cc(F)cc3scnc23)C1 [Example 135, 3-((6-Fluorobenzo[d]thiazol-4-yl)oxy)-N-(1-(5-fluoropyrimidin-2-yl)azetidin-3-yl)azetidine-1-carboxamide]",10 to 79.4
14,"CC(C)(O)c1csc(NC(=O)[C@H]2C[C@H](Oc3cccc4cccnc34)C2)n1 [Example 200, (trans)-N-(4-(2-Hydroxypropan-2-yl)thiazol-2-yl)-3-(quinolin-8-yloxy)cyclobutanecarboxamide]",10 to 79.4
15,"Cc1nc(NC(=O)[C@H]2C[C@H](Oc3cccc4cccnc34)C2)oc1C [Example 175, (trans)-N-(4,5-Dimethyloxazol-2-yl)-3-(quinolin-8-yloxy)cyclobutanecarboxamide]",10 to 79.4
16,"CC(O)([C@H]1CC[C@H](NC(=O)[C@H]2C[C@H](Oc3cc(F)ccc3OC(F)F)C2)CC1)C(F)(F)F (mixture of isomers) [Example 28, Racemic (trans)-3-(2-(Difluoromethoxy)-5-fluorophenoxy)-N-((trans)-4-(1,1,1-trifluoro-2-hydroxypropan-2-yl)cyclohexyl)cyclobutanecarboxamide]",10 to 79.4
17,"O=C(Nc1nc(CO)cs1)[C@H]1C[C@H](Oc2cccc3cccnc23)C1 [Example 215, (trans)-N-(4-(Hydroxymethyl)thiazol-2-yl)-3-(quinolin-8-yloxy)cyclobutanecarboxamide]",10 to 79.4
18,"COc1ccc(F)cc1O[C@H]1C[C@H](C(=O)N[C@H]2CC[C@H](OCC(C)(C)O)CC2)C1 [Example 169, (trans)-3-(5-Fluoro-2-methoxyphenoxy)-N-((trans)-4-(2-hydroxy-2-methylpropoxy)cyclohexyl)cyclobutanecarboxamide]",10 to 79.4
19,"COc1cncc(NC(=O)N2CC(Oc3cccc4scnc34)C2)c1 [Example 323, 3-(Benzo[d]thiazol-4-yloxy)-N-(5-methoxypyridin-3-yl)azetidine-1-carboxamide]",10 to 79.4
20,"CC(C)c1nnc(NC(=O)N2CC(Oc3cccc4scnc34)C2)o1 [Example 328, 3-(Benzo[d]thiazol-4-yloxy)-N-(5-isopropyl-1,3,4-oxadiazol-2-yl)azetidine-1-carboxamide]",100 to 1000
21,Cc1ccc(N2CC(NC(=O)N3CC(Oc4cccc5scnc45)C3)C2)nc1 [Example 244],10 to 79.4
22,"Cc1ccc(N2CC(NC(=O)N3CC(Oc4cc(F)cc5scnc45)C3)C2)nc1 [Example 232, 3-((6-Fluorobenzo[d]thiazol-4-yl)oxy)-N-(1-(5-methylpyridin-2-yl)azetidin-3-yl)azetidine-1-carboxamide]",10 to 79.4
23,"O=C(NC1CN(c2ncccn2)C1)[C@H]1C[C@H](Oc2cccc3scnc23)C1 [Example 80, (trans)-3-(Benzo[d]thiazol-4-yloxy)-N-(1-(pyrimidin-2-yl)azetidin-3-yl)cyclobutanecarboxamide]",10 to 79.4
24,"O=C(N[C@H]1CC[C@H](NC(CO)C(F)(F)F)CC1)[C@H]1C[C@H](Oc2cc(F)cc3scnc23)C1 (mixture of isomers) [Example 126, Racemic (trans)-3-((6-Fluorobenzo[d]thiazol-4-yl)oxy)-N-((trans)-4-((1,1,1-trifluoro-3-hydroxypropan-2-yl)amino)cyclohexyl)cyclobutanecarboxamide]",10 to 79.4
25,"COc1ccc(F)cc1O[C@H]1C[C@H](C(=O)Nc2nc(C(C)=O)cs2)C1 [Example 163, (trans)-N-(4-Acetylthiazol-2-yl)-3-(5-fluoro-2-methoxyphenoxy)cyclobutanecarboxamide]",10 to 79.4
26,"Cc1ccc(N2CC(NC(=O)[C@H]3C[C@H](Oc4cc(F)cc5scnc45)C3)C2)[n+]([O-])c1 [Example 111, 2-(3-((trans)-3-((6-Fluorobenzo[d]thiazol-4-yl)oxy)cyclobutanecarboxamido)azetidin-1-yl)-5-methylpyridine 1-oxide]",100 to 1000
27,"O=C(NC1CN(c2ncccn2)C1)N1CC(Oc2cccc3scnc23)C1 [Example 107, 3-(Benzo[d]thiazol-4-yloxy)-N-(1-(pyrimidin-2-yl)azetidin-3-yl)azetidine-1-carboxamide]",10 to 79.4

# — patent US11053234B2 (GlaxoSmithKline Intellectual Property Development Limited, priority 2016, dated 2021)
